From patent publication US6727264B1 (Synaptic Pharmaceutical Corporation, priority 2001, dated 2004)

Molecular target: rat MCH-1 (Rattus norvegicus, UniProt P97639)
Test: Radioligand binding assay at cloned rat MCH1 receptor ([3H] Compound A)
Parameters: host or cells: Peak rapid 293 (Peakr293) cells, transient calcium phosphate transfection, membranes
Conditions: cloned rat MCH1 receptor, membranes from Peakr293 cells, 0.08 nM [3H] Compound A; read-out: Ki (nM) rMCH1

rat MCH-1, sequence (P97639 whole entry): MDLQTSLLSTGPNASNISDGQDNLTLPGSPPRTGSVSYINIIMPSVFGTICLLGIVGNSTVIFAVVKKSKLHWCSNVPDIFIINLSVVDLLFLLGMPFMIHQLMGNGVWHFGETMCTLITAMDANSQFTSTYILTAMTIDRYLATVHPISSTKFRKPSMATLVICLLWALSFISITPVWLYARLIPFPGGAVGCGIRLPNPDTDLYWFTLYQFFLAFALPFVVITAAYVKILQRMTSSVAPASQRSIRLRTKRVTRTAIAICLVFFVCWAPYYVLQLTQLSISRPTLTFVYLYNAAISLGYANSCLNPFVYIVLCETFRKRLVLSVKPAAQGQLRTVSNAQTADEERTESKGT

| SMILES | Ki |
| --- | --- |
| CC(C)C(=O)Nc1cccc(C2CCN(CCC(Oc3ccc(Br)cc3)c3ccc(Cl)cc3)CC2)c1 (stereo not drawn) [Example 171] | 3.7 nM |
| CC(=O)c1ccccc1OC(CCN1CCC(c2cccc(NC(=O)C(C)C)c2)CC1)c1ccc(F)cc1 (stereo not drawn) [Example 175] | 16.2 nM |
| CC(=O)c1cccc(OC(CCN2CCC(c3cccc(NC(=O)C(C)C)c3)CC2)c2ccc(F)cc2)c1 (stereo not drawn) [Example 176] | 11.8 nM |
| COc1ccc(OC(CCN2CCC(c3cccc(NC(=O)C(C)C)c3)CC2)c2ccc(F)cc2)cc1 (stereo not drawn) [Example 177] | 6.8 nM |
| COc1ccc(C(CCN2CCC(c3cccc(NC(=O)C(C)C)c3)CC2)Oc2cccc(C(C)=O)c2)cc1 (stereo not drawn) [Example 179] | 82.3 nM |
| CC(C)C(=O)Nc1cccc(C2CCN(CCC(Oc3ccccc3)c3ccc(Cl)cc3)CC2)c1 (stereo not drawn) [Example 180] | 9.7 nM |
| COc1ccc(C(CCN2CCC(c3cccc(NC(=O)C(C)C)c3)CC2)Oc2ccccc2C(C)=O)cc1 (stereo not drawn) [Example 185] | 20.6 nM |
| CC(=O)c1cccc(O[C@@H](CCN2CCC(c3cc(NC(=O)C(C)C)ccc3C)CC2)c2ccccc2)c1 [Example 187] | 15.6 nM |
| CCCCOc1ccc2ccccc2c1CN1CCC(c2cccc(NC(=O)C(C)C)c2)CC1 [Example 189] | 438 nM |
| CC(C)C(=O)Nc1cccc(C2CCN(Cc3c(OCc4ccc(C#N)cc4)ccc4ccccc34)CC2)c1 [Example 190] | 436 nM |
| CC(C)C(=O)Nc1cccc(C2CCN(Cc3c(OCC#N)ccc4ccccc34)CC2)c1 [Example 191] | 649 nM |
| CC(C)C(=O)Nc1cccc(C2CCN(Cc3c(OCc4cccc(Cl)c4)ccc4ccccc34)CC2)c1 [Example 192] | 80.5 nM |
| CC(C)CCOc1ccc(CN2CCC(c3cccc(NC(=O)C(C)C)c3)CC2)c2ccccc12 [Example 195] | 106 nM |
| COc1ccc(Oc2ccc(CN3CCC(c4cccc(NC(=O)C(C)C)c4)CC3)cc2)cc1 [Example 196] | 35.2 nM |
| CC(C)C(=O)Nc1cccc(C2CCN(C(C)c3csc(-c4ccccc4)n3)CC2)c1 (stereo not drawn) [Example 201] | 996 nM |
| CC(C)C(=O)Nc1cccc(C2CCN(Cc3cccc(Oc4ccccc4)c3)CC2)c1 [Example 205] | 28 nM |
| Cc1ccc(Oc2cccc(CN3CCC(c4cccc(NC(=O)C(C)C)c4)CC3)c2)cc1 [Example 208] | 30.8 nM |
| CC(C)C(=O)Nc1cccc(C2CCN(Cc3cccc(Oc4ccc(Cl)cc4)c3)CC2)c1 [Example 210] | 23.3 nM |
| CC(C)C(=O)Nc1cccc(C2CCN(Cc3cccc(N(C)C)c3)CC2)c1 [Example 211] | 111 nM |
| COc1ccc(Oc2cccc(CN3CCC(c4cccc(NC(=O)C(C)C)c4)CC3)c2)cc1 [Example 212] | 43 nM |
| CC(C)C(=O)Nc1cccc(C2CCN(Cc3ccc(N4CCCCC4)c([N+](=O)[O-])c3)CC2)c1 [Example 214] | 56.3 nM |
| CC(C)C(=O)Nc1cccc(C2CCN(Cc3c[nH]nc3-c3ccc(C(F)(F)F)cc3)CC2)c1 [Example 216] | 818 nM |

| SMILES | Ki |
| --- | --- |
| CC(C)C(=O)Nc1cccc(C2CCN(Cc3ccc(-n4cncn4)cc3)CC2)c1 [Example 217] | 300 nM |
| CC(C)C(=O)Nc1cccc(C2CCN(Cc3ccc(N4CCOCC4)c([N+](=O)[O-])c3)CC2)c1 [Example 219] | 68.8 nM |
| CC(C)C(=O)Nc1cccc(C2CCN(Cc3ccc(-c4ccc(C(F)(F)F)cc4Cl)o3)CC2)c1 [Example 220] | 159 nM |
| CCOC(=O)c1c(CN2CCC(c3cccc(NC(=O)C(C)C)c3)CC2)c(C)n(-c2ccccc2)c1C [Example 221, ETHYL 4-({4-[3-(ISOBUTYRYLAMINO)PHENYL]-1-PIPERIDINYL}METHYL)-2,5-DIMETHYL-1-PHENYL-1H-PYRROLE-3-CARBOXYLATE] | 546 nM |
| CCOC(=O)c1cc(-c2ccc(Cl)cc2)oc1CN1CCC(c2cccc(NC(=O)C(C)C)c2)CC1 [Example 222, ETHYL 5-(4-CHLOROPHENYL)-2-({4-[3-(ISOBUTYRYLAMINO)PHENYL]-1-PIPERIDINYL}METHYL)-3-FUROATE] | 152 nM |
| CC(C)C(=O)Nc1cccc(C2CCN(Cc3ccc(-c4cc(C(F)(F)F)nn4C)s3)CC2)c1 [Example 226] | 239 nM |
| CC(C)C(=O)Nc1cccc(C2CCN(Cc3cn(S(=O)(=O)c4ccccc4)c4ccccc34)CC2)c1 [Example 227] | 262 nM |
| Cc1c(CN2CCC(c3cccc(NC(=O)C(C)C)c3)CC2)c(=O)n(-c2ccccc2)n1C [Example 228] | 841 nM |
| Cc1nc(-c2ccccc2)ncc1CN1CCC(c2cccc(NC(=O)C(C)C)c2)CC1 [Example 231] | 596 nM |
| CC(C)C(=O)Nc1cccc(C2CCN(Cc3ccc4nsnc4c3)CC2)c1 [Example 232] | 431 nM |
| CC(C)C(=O)Nc1cccc(C2CCN(Cc3ccc(-c4ccccc4)s3)CC2)c1 [Example 233] | 125 nM |
| CC(C)C(=O)Nc1cccc(C2CCN(Cc3ccc4c(c3)OCCCO4)CC2)c1 [Example 234] | 116 nM |
| CC(C)C(=O)Nc1cccc(C2CCN(Cc3ccc(-c4cccs4)s3)CC2)c1 [Example 236] | 97.7 nM |
| CC(C)C(=O)Nc1cccc(C2CCN(Cc3ccc(-c4cc(C(F)(F)F)n(C)n4)s3)CC2)c1 [Example 238] | 65.9 nM |
| CC(C)C(=O)Nc1cccc(C2CCN(Cc3cc4ccccc4s3)CC2)c1 [Example 253] | 362 nM |
| CC(C)C(=O)Nc1cccc(C2CCN(Cc3ccc(-c4cccc(OC(F)(F)F)c4)o3)CC2)c1 [Example 254] | 401 nM |
| CC(C)C(=O)Nc1cccc(C2CCN(Cc3ccc(-n4ccnc4)cc3)CC2)c1 [Example 256] | 321 nM |
| CC(C)C(=O)Nc1cccc(C2CCN(Cc3ccc4c(c3)Cc3ccccc3-4)CC2)c1 [Example 257] | 37.2 nM |
| CC(C)C(=O)Nc1cccc(C2CCN(Cc3ccc(Oc4ccccc4)cc3)CC2)c1 [Example 259] | 15.4 nM |
| CC(C)C(=O)Nc1cccc(C2CCN(Cc3ccc(-c4ccccc4)cc3)CC2)c1 [Example 260] | 77.7 nM |
| Cc1ccc(Sc2ccc(CN3CCC(c4cccc(NC(=O)C(C)C)c4)CC3)cc2[N+](=O)[O-])cc1 [Example 262] | 64.1 nM |
| Cc1ccc(C(=O)CCCN2CCC(c3cccc(NC(=O)C(C)C)n3)CC2)cc1C [Example 264] | 54.7 nM |

Further lines, results first:

| Ki | SMILES |
| --- | --- |
| 3 nM | CC(C)C(=O)Nc1cccc(C2CCN(CCC(Oc3ccc(Cl)cc3)c3ccc(Cl)cc3)CC2)c1 (stereo not drawn) [Example 172] |
| 112 nM | COc1ccc(C(CCN2CCC(c3cccc(NC(=O)C(C)C)c3)CC2)Oc2ccccc2)cc1 (stereo not drawn) [Example 173, N-(3-{1-[3-(4- METHOXYPHENYL)-3-PHENOXYPROPYL]-4-PIPERIDINYL}PHENYL)-2-METHYLPROPANAMIDE] |
| 17 nM | CC(C)C(=O)Nc1cccc(C2CCN(CCC(Oc3ccccc3)c3ccc(F)cc3)CC2)c1 (stereo not drawn) [Example 174] |
| 119 nM | COc1ccc(C(CCN2CCC(c3cccc(NC(=O)C(C)C)c3)CC2)Oc2ccc(Cl)cc2)cc1 (stereo not drawn) [Example 178] |
| 91.9 nM | COc1ccc(C(CCN2CCC(c3cccc(NC(=O)C(C)C)c3)CC2)Oc2ccc(Br)cc2)cc1 (stereo not drawn) [Example 181] |
| 101 nM | COc1ccc(C(CCN2CCC(c3cccc(NC(=O)C(C)C)c3)CC2)Oc2ccc(C(F)(F)F)cc2)cc1 (stereo not drawn) [Example 182] |
| 4 nM | CC(C)C(=O)Nc1cccc(C2CCN(CCC(Oc3ccc(F)cc3)c3ccc(Cl)cc3)CC2)c1 (stereo not drawn) [Example 183] |
| 105 nM | COc1ccc(C(CCN2CCC(c3cccc(NC(=O)C(C)C)c3)CC2)Oc2ccc(F)cc2)cc1 (stereo not drawn) [Example 184] |
| 4.9 nM | CC(C)C(=O)Nc1cccc(C2CCN(CCC(Oc3ccc(C(F)(F)F)cc3)c3ccc(Cl)cc3)CC2)c1 (stereo not drawn) [Example 186] |
| 531 nM | CC(C)CCOc1ccc2ccccc2c1CN1CCC(c2cccc(NC(=O)C(C)C)c2)CC1 [Example 188] |
| 63.1 nM | CCCOc1ccc(CN2CCC(c3cccc(NC(=O)C(C)C)c3)CC2)c2ccccc12 [Example 197] |
| 155 nM | Cc1nn(-c2ccccc2)c(Cl)c1CN1CCC(c2cccc(NC(=O)C(C)C)c2)CC1 [Example 202] |
| 79.6 nM | CC(C)C(=O)Nc1cccc(C2CCN(Cc3c[nH]c(-c4ccccc4)n3)CC2)c1 [Example 203] |
| 39.8 nM | CC(C)C(=O)Nc1cccc(C2CCN(Cc3c(Br)cnn3Cc3ccc(Cl)cc3)CC2)c1 [Example 204] |
| 17.7 nM | CC(C)C(=O)Nc1cccc(C2CCN(Cc3cccc(Oc4ccc(Cl)c(Cl)c4)c3)CC2)c1 [Example 206] |
| 137 nM | CC(C)C(=O)Nc1cccc(C2CCN(Cc3cccc(Oc4cc(Cl)cc(Cl)c4)c3)CC2)c1 [Example 207, N-(3-{1-[3-(3,5-dichlorophenoxy)benzyl]-4-piperidinyl}phenyl)-2-methylpropanamide] |
| 64.8 nM | CC(C)C(=O)Nc1cccc(C2CCN(Cc3cccc(Oc4cccc(C(F)(F)F)c4)c3)CC2)c1 [Example 209] |
| 519 nM | CC(C)C(=O)Nc1cccc(C2CCN(Cc3cccc(Oc4ccc(C(C)(C)C)cc4)c3)CC2)c1 [Example 213] |
| 283 nM | Cc1csc2sc(CN3CCC(c4cccc(NC(=O)C(C)C)c4)CC3)c(C)c12 [Example 215, N-(3-{1-[(3,4- DIMETHYLTHIENO[2,3-B]THIEN-2-YL)METHYL]-4-PIPERIDINYL}PHENYL)-2-METHYLPROPANAMIDE] |
| 126 nM | Cc1c(CN2CCC(c3cccc(NC(=O)C(C)C)c3)CC2)cnn1-c1ccccc1 [Example 218] |
| 318 nM | CC(C)C(=O)Nc1cccc(C2CCN(Cc3ccc4c(c3)OCCO4)CC2)c1 [Example 223] |
| 48 nM | CC(C)C(=O)Nc1cccc(C2CCN(Cc3ccc(Oc4ccccc4)nc3)CC2)c1 [Example 224] |
| 214 nM | CC(C)C(=O)Nc1cccc(C2CCN(Cc3ccc(-c4ccccn4)s3)CC2)c1 [Example 225] |
| 885 nM | CC(C)C(=O)Nc1cccc(C2CCN(Cc3ccc(-c4nc(C(C)(C)C)cs4)cc3)CC2)c1 [Example 229] |
| 412 nM | CC(C)C(=O)Nc1cccc(C2CCN(Cc3c[nH]nc3-c3cccs3)CC2)c1 [Example 235] |
| 590 nM | CC(C)C(=O)Nc1cccc(C2CCN(Cc3ccc4ccccc4n3)CC2)c1 [Example 255] |
| 6.5 nM | CCCCN(CCCC)c1ccc(CN2CCC(c3cccc(NC(=O)C(C)C)c3)CC2)cc1 [Example 261] |
| 156 nM | CC(C)C(=O)Nc1cccc(C2CCN(Cc3ccc(-c4csnn4)cc3)CC2)c1 [Example 263] |
